Test results as given in US4713378A, “Penem derivatives” (Farmitalia Carlo Erba S.p.A., priority 1984, dated 1987).
Values after ≈ are worked out from the molar mass of the structure shown. Like-named read-outs stand apart in the source and are kept apart here.

What was measured:
Format in all cases: cell-based
[1] = test system: Staphylococcus aureus Smith; test: antibacterial in vitro activity (MIC), Staphylococcus aureus Smith
Excerpt: (§1) Comparison between the antibacterial in vitro activity
(§2) (MIC, μg/ml) of compound "5" and two reference drugs: […]

[2] = test system: Streptococcus pyogenes ATCC 12384; test: antibacterial in vitro activity (MIC), Streptococcus pyogenes ATCC 12384; conditions: ATCC12384; Streptococcus pyogenes ATCC 12384, in vitro
Excerpt: as §1, §2

[3] = test system: Escherichia coli B Cef. R (β-lact.+); test: antibacterial in vitro activity (MIC), Escherichia coli B Cef. R (β-lact.+)
Excerpt: as §1, §2

[4] = test system: Enterobacter cloacae P 99 (β-lact.+); test: antibacterial in vitro activity (MIC), Enterobacter cloacae P 99 (β-lact.+)
Excerpt: as §1, §2

Escherichia coli 026:B6 = test: antibacterial in vitro activity (MIC), Escherichia coli 026:B6; conditions: Escherichia coli 026:B6, in vitro
Excerpt: as §1, §2

[5] = test system: Pseudomonas aeruginosa ATCC 19660; test: antibacterial in vitro activity (MIC), Pseudomonas aeruginosa ATCC 19660; conditions: ATCC19660; Pseudomonas aeruginosa ATCC 19660, in vitro
Excerpt: as §1, §2

[6] = test system: Proteus morganii ATCC 25830; test: antibacterial in vitro activity (MIC), Proteus morganii ATCC 25830; conditions: Morganella morganii, ATCC25830; Proteus morganii ATCC 25830, in vitro
Excerpt: as §1, §2

[7] = test system: Escherichia coli 026:B6 Cef R; test: antibacterial in vitro activity (MIC), Escherichia coli 026:B6 Cef R
Excerpt: as §1, §2

[8] = test system: Staphylococcus aureus 209 P; test: antibacterial in vitro activity (MIC), Staphylococcus aureus 209 P
Excerpt: as §1, §2

[9] = test system: Klebsiella aerogenes 1082E (β-lact.+); test: antibacterial in vitro activity (MIC), Klebsiella aerogenes 1082E (β-lact.+)
Excerpt: as §1, §2

[10] = test system: Salmonella typhimurium ATCC 14028; test: antibacterial in vitro activity (MIC), Salmonella typhimurium ATCC 14028; conditions: Salmonella enterica; Salmonella typhimurium ATCC 14028, in vitro
Excerpt: as §1, §2

[11] = test system: Shigella flexneri ATCC 11836; test: antibacterial in vitro activity (MIC), Shigella flexneri ATCC 11836; conditions: ATCC11836; Shigella flexneri ATCC 11836, in vitro
Excerpt: as §1, §2

Escherichia coli B = test: antibacterial in vitro activity (MIC), Escherichia coli B
Excerpt: as §1, §2

[12] = test system: Citrobacter freundii ATCC 8090; test: antibacterial in vitro activity (MIC), Citrobacter freundii ATCC 8090; conditions: ATCC8090; Citrobacter freundii ATCC 8090, in vitro
Excerpt: as §1, §2

[13] = test system: Serratia marcescens ATCC 2902; test: antibacterial in vitro activity (MIC), Serratia marcescens ATCC 2902; conditions: ATCC2902; Serratia marcescens ATCC 2902, in vitro
Excerpt: as §1, §2

[14] = test system: Proteus mirabilis FI 7474; test: antibacterial in vitro activity (MIC), Proteus mirabilis FI 7474; conditions: FI7474; Proteus mirabilis FI 7474, in vitro
Excerpt: as §1, §2

[15] = test system: Enterobacter cloacae 1321 E; test: antibacterial in vitro activity (MIC), Enterobacter cloacae 1321 E
Excerpt: as §1, §2

[16] = Enterobacter cloacae P 99 (β-lact.+), in vitro, read-out: MIC
[17] = Staphylococcus aureus 209 P, in vitro, read-out: MIC

Compound | MIC [1] | MIC [2] | MIC [3] | MIC [4, 16] | MIC (Escherichia coli 026:B6) | MIC [5] | MIC [6] | MIC [7] | MIC ([8]; Staphylococcus aureus, 209P) | MIC [9] | MIC [10] | MIC [11] | MIC (Escherichia coli B) | MIC [12] | MIC ([4]; Enterobacter cloacae) | MIC [8, 17] | MIC [13] | MIC [14] | MIC [15]
CO/N=C(\C(=O)N[C@@H]1C(=O)N2C(C(=O)O)=C(COC(C)=O)CS[C@H]12)c1csc(N)n1 [Cefotaxime] | 0.78 mg/L (≈ 1.71 µM) | 0.78 mg/L (≈ 1.71 µM) | 0.19 mg/L (≈ 0.417 µM) | > 100 mg/L | 0.78 mg/L (≈ 1.71 µM) | 12 mg/L (≈ 26.3 µM) | 0.011 mg/L (≈ 0.0242 µM) | 1.56 mg/L (≈ 3.43 µM) | 1.56 mg/L (≈ 3.43 µM) | 3.12 mg/L (≈ 6.85 µM) | 0.045 mg/L (≈ 0.0988 µM) | 0.023 mg/L (≈ 0.0505 µM) | 0.011 mg/L (≈ 0.0242 µM) |  |  |  |  |  | 
CC(=O)OCC1=C(C(=O)O)N2C(=O)[C@H]([C@@H](C)O)[C@H]2S1 [FCE 21420] | 0.023 mg/L (≈ 0.0801 µM) | 0.045 mg/L (≈ 0.157 µM) | 0.39 mg/L (≈ 1.36 µM) |  |  | > 50 mg/L | 0.78 mg/L (≈ 2.71 µM) | 3.12 mg/L (≈ 10.9 µM) |  | 0.78 mg/L (≈ 2.71 µM) | 0.39 mg/L (≈ 1.36 µM) | 0.39 mg/L (≈ 1.36 µM) |  | 0.78 mg/L (≈ 2.71 µM) | 3.12 mg/L (≈ 10.9 µM) | 0.045 mg/L (≈ 0.157 µM) | 3.1 mg/L (≈ 10.8 µM) |  | 
C[C@@H](O)[C@H]1C(=O)N2C(C(=O)[O-])=C(C[N+]3(C)CCCC3)S[C@H]12 [Compound 5, (5R,6S)-6-[(1R)-hydroxyethyl]-2-[1-(1-methylpyrrolidinio)]-methylpenem-3-carboxylate] | < 0.005 mg/L | < 0.005 mg/L | 0.045 mg/L (≈ 0.144 µM) | 0.045 mg/L (≈ 0.144 µM) | 0.005 mg/L (≈ 0.016 µM) | 25 mg/L (≈ 80 µM) | 0.38 mg/L (≈ 1.22 µM) |  |  | 0.045 mg/L (≈ 0.144 µM) | 0.045 mg/L (≈ 0.144 µM) | 0.045 mg/L (≈ 0.144 µM) | 0.045 mg/L (≈ 0.144 µM) | 0.09 mg/L (≈ 0.288 µM) |  | < 0.005 mg/L | 0.78 mg/L (≈ 2.5 µM) | 0.19 mg/L (≈ 0.608 µM) | 0.045 mg/L (≈ 0.144 µM)
